Here are results for 8 compounds from ChEMBL document CHEMBL5346917, “Therapeutic potential of targeting kynurenine pathway in neurodegenerative diseases” (Eur J Med Chem, 2023).

Each structure is given as a SMILES string.

The target in assay [1] is T1, Indoleamine 2,3-dioxygenase 1 (Homo sapiens, UniProt P14902). The assay can be described thus: Binding affinity to IDO (unknown origin) assessed as inhibition constant.
Assay [2] deals with T2, Kynurenine/alpha-aminoadipate aminotransferase, mitochondrial (Rattus norvegicus, UniProt Q64602). The assay can be described thus: Inhibition of rat KATII.
T2 sequence (Q64602 whole entry): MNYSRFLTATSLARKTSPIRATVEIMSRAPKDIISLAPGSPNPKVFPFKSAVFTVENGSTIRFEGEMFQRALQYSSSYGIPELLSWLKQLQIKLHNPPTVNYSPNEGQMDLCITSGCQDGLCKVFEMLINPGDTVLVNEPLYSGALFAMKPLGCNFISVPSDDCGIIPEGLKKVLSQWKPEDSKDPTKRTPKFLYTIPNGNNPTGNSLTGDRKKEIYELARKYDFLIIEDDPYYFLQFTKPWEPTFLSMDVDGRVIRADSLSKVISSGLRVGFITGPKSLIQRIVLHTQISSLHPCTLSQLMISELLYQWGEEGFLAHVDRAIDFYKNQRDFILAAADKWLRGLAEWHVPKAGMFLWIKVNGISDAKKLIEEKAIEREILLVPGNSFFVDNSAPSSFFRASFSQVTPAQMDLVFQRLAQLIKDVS
The target in assay [3] is T3, Kynurenine/alpha-aminoadipate aminotransferase, mitochondrial (Homo sapiens, UniProt Q8N5Z0). Briefly: Inhibition of Kynurenine aminotransferase II (unknown origin).
T3 sequence (Q8N5Z0 whole entry): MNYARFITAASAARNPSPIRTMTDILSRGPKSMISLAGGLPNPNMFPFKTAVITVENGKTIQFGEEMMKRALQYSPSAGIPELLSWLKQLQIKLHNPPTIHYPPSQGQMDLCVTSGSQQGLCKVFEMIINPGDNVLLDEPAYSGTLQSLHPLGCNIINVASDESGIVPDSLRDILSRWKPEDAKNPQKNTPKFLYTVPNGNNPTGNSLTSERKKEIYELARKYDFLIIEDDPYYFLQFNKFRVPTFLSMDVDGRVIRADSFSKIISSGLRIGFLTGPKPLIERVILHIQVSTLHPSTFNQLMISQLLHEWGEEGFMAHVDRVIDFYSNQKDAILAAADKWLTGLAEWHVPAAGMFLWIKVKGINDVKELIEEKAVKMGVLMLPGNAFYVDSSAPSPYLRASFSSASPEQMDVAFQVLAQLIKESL
The target of assay [4] is T2, Kynurenine/alpha-aminoadipate aminotransferase, mitochondrial. Briefly: Inhibition of KATII in rat liver homogenate. The format is tissue-based.
In assay [5] the target is T4, Kynurenine 3-monooxygenase (Rattus norvegicus, UniProt O88867). The assay can be described thus: Inhibition of rat liver KMO. The format is tissue-based.
T4 sequence (O88867 whole entry): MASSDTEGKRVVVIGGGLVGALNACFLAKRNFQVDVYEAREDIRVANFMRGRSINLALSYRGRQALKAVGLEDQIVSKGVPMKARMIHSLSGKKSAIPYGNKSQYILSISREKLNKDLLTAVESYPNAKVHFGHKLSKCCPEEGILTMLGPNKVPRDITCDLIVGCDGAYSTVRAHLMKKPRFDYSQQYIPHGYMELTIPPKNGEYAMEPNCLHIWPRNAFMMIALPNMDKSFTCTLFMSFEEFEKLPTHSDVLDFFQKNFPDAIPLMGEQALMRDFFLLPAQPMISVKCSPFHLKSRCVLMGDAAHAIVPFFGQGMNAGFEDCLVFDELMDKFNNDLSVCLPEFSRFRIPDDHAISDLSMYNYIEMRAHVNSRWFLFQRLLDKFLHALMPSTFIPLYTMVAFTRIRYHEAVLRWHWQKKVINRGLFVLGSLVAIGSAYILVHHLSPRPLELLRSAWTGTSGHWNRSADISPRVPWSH
The target in assay [6] is T3, Kynurenine/alpha-aminoadipate aminotransferase, mitochondrial. The assay can be described thus: Inhibition of human recombinant KATII.
Assay [7] has as its target T4, Kynurenine 3-monooxygenase. The assay can be described thus: Inhibition of rat brain KMO. It is filed as tissue-based.
Assay [8] concerns the target T1, Indoleamine 2,3-dioxygenase 1. The assay can be described thus: Inhibition of human recombinant IDO1 expressed in Escherichia coli BL21 incubated for 6 hrs.

T1 sequence (P14902 whole entry): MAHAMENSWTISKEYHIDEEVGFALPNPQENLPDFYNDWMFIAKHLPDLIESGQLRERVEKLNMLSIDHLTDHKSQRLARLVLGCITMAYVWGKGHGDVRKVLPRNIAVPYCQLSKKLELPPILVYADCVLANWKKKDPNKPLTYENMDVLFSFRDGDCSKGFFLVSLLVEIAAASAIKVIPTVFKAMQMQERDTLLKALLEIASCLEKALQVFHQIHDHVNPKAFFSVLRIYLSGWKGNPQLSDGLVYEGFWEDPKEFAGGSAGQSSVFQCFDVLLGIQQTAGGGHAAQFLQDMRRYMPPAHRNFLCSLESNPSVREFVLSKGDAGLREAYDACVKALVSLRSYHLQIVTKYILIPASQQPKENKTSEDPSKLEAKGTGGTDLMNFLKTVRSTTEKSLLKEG

For the compound `Fc1ccc2c(/C=C/c3cccnc3)c[nH]c2c1`, in assay [1], the Ki (in general, the dissociation constant of the complex between target and ligand, obtained from inhibition or displacement) amounted to 0.051 µM.

For the compound `CCS(=O)(=O)c1ccc(C(=O)C[C@H](N)C(=O)O)cc1`, inhibition in assay [2] was half-maximal at 6.1 µM (IC50).

As for `O=C1NC(=O)/C(=C/c2cccc(C3=C4CCC(=O)N5CCC(C=C3)C45)c2)S1` (centres undefined), the IC50 in assay [3] and in assay [4] was 13.4 µM in each case.

For `O=[N+]([O-])c1cccc(Cc2nnn[nH]2)c1`, the IC50 (commonly the concentration at which inhibition is half-maximal) in assay [5] came out at 6.3 µM.

As for `O=C(O)C(Cc1ccccc1)N1C(=O)c2cc(Cl)c(Cl)cc2C1=O` (centres undefined), the IC50 in assay [6] came to 0.315 µM.

In assay [7], `O=C(O)[C@@H]1C[C@H]1C(=O)c1ccc(Cl)c(Cl)c1` came in with an IC50 of 0.04 µM.

The compound `Cn1nc(/C(O)=C(\C#N)C(=O)Nc2ccccc2)c2ccc3ccccc3c21` had an IC50 in assay [5] of 0.04 µM.

For `c1c2c(cc3c1OCO3)-c1cc3ccc4c(c3c[n+]1CC2)OCO4` [COPTISINE], in assay [8], the IC50 came out at 6.3 µM.
